In PMC7076352 (Pharmaceutics, 2020):
Like-named read-outs stand apart in the source and are kept apart here.

Experiments:
[1] = in vivo; parameters: species or system Sprague-Dawley (SD) rats; settings: Sprague-Dawley, plasma, rat; for concentration at […]: 0.083 h after oral CNP; for AUC(0-inf) / AUC(0-t) / Cmax / Tmax / half-life: 60 mg/kg
Method: At each time, 0.5 mL of blood was collected in the heparin sodium tubes. Plasma was separated by centrifugation at 4000 rpm for 10 min and stored below −80 °C until bioanalysis. Oasis PRiME HLB SPE cartridges (1 cc/30 mg, Waters, Milford, MA, USA) were used to process the plasma samples (Supplementary Materials).
The generic layout of instrumentation setup of the LVDI-UHPLC-MS/MS was conducted on a Shimadzu UHPLC system consisting of two LC-20ADXR pumps, a DGU-20A3R degasser, and a CBM-20A controller (Kyoto, Japan) with a SCIEX 4500 QTRAP mass spectrometer mounted with an electron spray ionization (ESI) interface as well as an electronic 6-port/2-channel valve (Foster City, CA, USA). Analyst software package (version 1.6.2, SCIEX) was implemented to control and synchronize the entire system, and also for data acquisition and processing. A single analytical run was fragmented into two phases, namely, loading and elution phases, by switching the electronic valve (Figure 2). At the loading phase, the valve was maintained at A-channel. The specimen aliquot of large volume delivered from the auto-sampler was captured onto a guard column. Meanwhile, the pumps were responsible for delivering the mobile phase at a high flow rate, aiming to dilute the sample solvent, thus facilitating the candidate constituents to concentrate on the pre-guard column. Then, the valve was automatically switched to the B-channel to trigger the elution phase. The trapped components were flushed from the pre-guard column into an analytical column, and underwent multiple reaction monitoring (MRM) analysis on the optimized LC gradients. The detailed information of LVDI-UHPLC-MS/MS analysis for pharmacokinetic and cocktail studies is shown in the Supplementary Materials section.

[2] = system: CYP2C19; experiment: In vitro cocktail CYP450 activity assay in rat liver microsomes, CYP2C19 (omeprazole probe); settings: for IC50 at 15 min: Sprague-Dawley, rat, pooled rat liver microsomes, pH 7.4, probe omeprazole (1.07 µM, in seven-probe cocktail), IC50 CYP2C19, single components, RLM 0.2 mg/mL, triplicate, mean ± SD; for Response (% control) CYP2C19: at the Cmax level in rat plasma, calculated from the dose–response curve
Method: (§1) (OHBUP-[D6]) and 5 nM 4′-hydroxydiclofenac-[^13C6] (OHDIC-[^13C6]) as internal standards (ISs). […]
(§2) standard addition experiments. Each group included four concentration levels. For the PK […]
(§3) The probe compounds, viz. […]
(§4) chosen after incubating all the recruited substrates. In order to assure the linear relationship […]
(§5) The incubation system was also optimized in terms of substrate concentrations. The substrates concentrations of […]

[3] = system: CYP2B6; experiment: In vitro cocktail CYP450 activity assay in rat liver microsomes, CYP2B6 (bupropion probe); settings: Sprague-Dawley, rat, pooled rat liver microsomes, pH 7.4, probe bupropion (90 µM, in seven-probe cocktail), IC50 CYP2B6, single components; RLM 0.2 mg/mL, 15 min, triplicate, mean ± SD
Method: as §1, §2, §3, §4, §5

[4] = system: CYP2C9; experiment: In vitro cocktail CYP450 activity assay in rat liver microsomes, CYP2C9 (tolbutamide probe); settings: for IC50 at 15 min: Sprague-Dawley, rat, pooled rat liver microsomes, pH 7.4, probe tolbutamide (18 µM, in seven-probe cocktail), IC50 CYP2C9, single components, RLM 0.2 mg/mL, triplicate, mean ± SD; for Response (% control) CYP2C9: at the Cmax level in rat plasma, calculated from the dose–response curve
Method: as §1, §2, §3, §4, §5

[5] = system: CYP2D6; experiment: in vitro; settings: Sprague-Dawley, rat; for Response (% control) CYP2D6: 15 min, pH 7.4; for IC50 at 15 min: microsomes, pH 7.4, IC50 CYP2D6
Method: as §1, §2, §3, §4, §5

[6] = system: CYP3A4; experiment: in vitro
Method: as §1, §2, §3, §4, §5

[7] = target: T1, CYP1A2 (Rattus norvegicus, UniProt P04799); experiment: In vitro cocktail CYP450 activity assay in rat liver microsomes, CYP1A2 (phenacetin probe); settings: for IC50: IC50 CYP1A2, single components, RLM 0.2 mg/mL, 15 min, triplicate, mean ± SD
T1 sequence (P04799 1-513): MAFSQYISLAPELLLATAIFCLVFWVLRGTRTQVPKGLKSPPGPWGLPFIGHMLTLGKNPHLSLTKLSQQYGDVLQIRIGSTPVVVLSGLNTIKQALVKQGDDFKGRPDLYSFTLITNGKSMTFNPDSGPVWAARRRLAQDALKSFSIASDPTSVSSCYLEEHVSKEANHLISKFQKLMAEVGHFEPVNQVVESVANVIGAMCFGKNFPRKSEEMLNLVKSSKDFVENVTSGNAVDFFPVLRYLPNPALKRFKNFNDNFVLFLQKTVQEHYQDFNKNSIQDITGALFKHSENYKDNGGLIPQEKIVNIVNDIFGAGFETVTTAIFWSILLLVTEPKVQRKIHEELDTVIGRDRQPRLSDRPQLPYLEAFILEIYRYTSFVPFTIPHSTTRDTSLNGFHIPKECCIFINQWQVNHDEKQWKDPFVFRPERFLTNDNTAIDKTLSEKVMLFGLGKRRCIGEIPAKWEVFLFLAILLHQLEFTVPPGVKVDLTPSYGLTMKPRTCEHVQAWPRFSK
Method: as §1, §2, §3, §4, §5

[8] = target: T2, CYP2E1 (Rattus norvegicus, UniProt P05182); settings: IC50 CYP2E1, single components; RLM 0.2 mg/mL, 15 min, triplicate, mean ± SD
Method: (§6) For the cocktail assay, the activity is expressed as the percentage of activity remaining comparing with that of a control sample containing no inhibitor. […] All the data were described as mean ± standard deviation (SD). Normality assumptions were tested by the Kolmogorov–Smirnov statistic setting p = 0.10 as the limit for rejection of the null hypothesis of normality. If the distribution of the data was normal with equal variances, a two-sided test was performed at the 5% level of significance. The Welch’s correction was then applied when the underlying variances were not equal. When the assumption of normality must be rejected, the Mann-Whitney test, a non-parametric equivalent of the independent-measures t-test, was used.

[9] = target: T2, CYP2E1
Method: as §6

[10] = at the Cmax level in rat plasma, calculated from the dose–response curve
[11] = Sprague-Dawley, rat, 15 min, pH 7.4

T2 sequence (P05182 whole entry): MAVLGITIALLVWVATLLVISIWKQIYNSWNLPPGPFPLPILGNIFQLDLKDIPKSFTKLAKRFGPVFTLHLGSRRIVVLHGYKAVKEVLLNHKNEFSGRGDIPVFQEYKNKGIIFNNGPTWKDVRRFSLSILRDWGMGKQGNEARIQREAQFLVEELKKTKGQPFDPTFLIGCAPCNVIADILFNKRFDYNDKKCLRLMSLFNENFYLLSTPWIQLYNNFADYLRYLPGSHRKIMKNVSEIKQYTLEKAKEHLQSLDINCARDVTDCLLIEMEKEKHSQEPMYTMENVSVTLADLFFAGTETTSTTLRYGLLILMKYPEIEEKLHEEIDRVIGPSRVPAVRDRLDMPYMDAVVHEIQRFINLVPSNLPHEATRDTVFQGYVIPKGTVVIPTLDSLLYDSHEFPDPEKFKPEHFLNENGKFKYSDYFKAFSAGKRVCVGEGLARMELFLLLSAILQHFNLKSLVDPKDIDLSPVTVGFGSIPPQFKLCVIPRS

CC(C)=CCC[C@](C)(O[C@@H]1O[C@H](CO)[C@@H](O)[C@H](O)[C@H]1O)[C@H]1CC[C@]2(C)[C@@H]1[C@H](O)C[C@@H]1[C@@]3(C)CC[C@H](O)C(C)(C)[C@@H]3[C@@H](O[C@@H]3O[C@H](CO)[C@@H](O)[C@H](O)[C@H]3O[C@@H]3OC[C@@H](O)[C@H](O)[C@H]3O)C[C@]12C [NGR1, notoginsenoside R1]
concentration at […] [1]: 0.26 ± 0.06 ng/mL | concentration at 0.25 h ([1]; 0.25 h after oral CNP): 0.36 ± 0.05 ng/mL | concentration at 0.5 h ([1]; 0.5 h after oral CNP): 0.53 ± 0.29 ng/mL | concentration at 1 h ([1]; 1 h after oral CNP): 0.45 ± 0.19 ng/mL | concentration at 1.5 h ([1]; 1.5 h after oral CNP): 0.33 ± 0.12 ng/mL | concentration at 2 h ([1]; 2 h after oral CNP): 0.32 ± 0.05 ng/mL | concentration at 3 h ([1]; 3 h after oral CNP): 0.44 ± 0.15 ng/mL | concentration at 4 h ([1]; 4 h after oral CNP): 0.38 ± 0.12 ng/mL | concentration at 6 h ([1]; 6 h after oral CNP): 0.37 ± 0.17 ng/mL | concentration at 8 h ([1]; 8 h after oral CNP): 0.46 ± 0.15 ng/mL | concentration at 12 h ([1]; 12 h after oral CNP): 0.38 ± 0.18 ng/mL | concentration at 24 h ([1]; 24 h after oral CNP): 0.17 ± 0.06 ng/mL | AUC(0-inf) ([1]; po): 8.14 ± 3.6 ng·h/mL | AUC(0-t) ([1]; po): 6.3 ± 2.41 ng·h/mL | Cmax ([1]; po): 0.64 ± 0.18 ng/mL | Tmax ([1]; po): 1.15 ± 1.06 h | half-life ([1]; po): 10.5 ± 3.06 h | concentration at 0.25 h ([1]; po, 60 mg·kg^−1): 0.46 ± 0.18 ng/mL | concentration at 0.5 h ([1]; po, 60 mg·kg^−1): 0.5 ± 0.15 ng/mL | concentration at 1 h ([1]; po, 60 mg·kg^−1): 0.45 ± 0.14 ng/mL | concentration at 1.5 h ([1]; po, 60 mg·kg^−1): 0.28 ± 0.1 ng/mL | concentration at 2 h ([1]; po, 60 mg·kg^−1): 0.25 ± 0.11 ng/mL | concentration at 3 h ([1]; po, 60 mg·kg^−1): 0.46 ± 0.2 ng/mL | concentration at 4 h ([1]; po, 60 mg·kg^−1): 0.38 ± 0.26 ng/mL | concentration at 6 h ([1]; po, 60 mg·kg^−1): 0.25 ± 0.06 ng/mL | concentration at 8 h ([1]; po, 60 mg·kg^−1): 0.35 ± 0.06 ng/mL | concentration at 12 h ([1]; po, 60 mg·kg^−1): 0.35 ± 0.14 ng/mL | concentration at 24 h ([1]; po, 60 mg·kg^−1): 0.14 ± 0.04 ng/mL | IC50 at 15 min [2]: 108 ± 29.6 µM | Response (% control) CYP2C19 [2]: 92.32 % control | IC50 at 15 min [3]: > 200 µM | IC50 at 15 min [4]: 154 ± 16.6 µM | Response (% control) CYP2C9 [4]: 99.99 % control | Response (% control) CYP2D6 [5]: 92.76 % control | IC50 at 15 min [5]: 20.4 ± 3.45 µM | IC50 ([6]; Sprague-Dawley, rat, microsomes, pH 7.4, IC50 CYP3A4, single components, RLM 0.2 mg/mL, 15 min, triplicate, mean ± SD): 84.6 ± 1.79 µM | Response (% control) CYP3A4 [6, 10]: 99.94 % control | IC50 [7]: 112 ± 7.72 µM | IC50 [8]: 122 ± 8.96 µM | Response (% control) CYP2E1 [9, 11]: 99.99 % control

CC(C)=CCC[C@](C)(O[C@@H]1O[C@H](CO)[C@@H](O)[C@H](O)[C@H]1O)[C@H]1CC[C@]2(C)[C@@H]1[C@H](O)C[C@@H]1[C@@]3(C)CC[C@H](O[C@@H]4O[C@H](CO)[C@@H](O)[C@H](O)[C@H]4O[C@@H]4O[C@H](CO)[C@@H](O)[C@H](O)[C@H]4O)C(C)(C)[C@@H]3CC[C@]12C [GRd, ginsenoside Rd]
concentration at […] [1]: 6.63 ± 0.64 ng/mL | concentration at 0.25 h ([1]; 0.25 h after oral CNP): 7.13 ± 0.69 ng/mL | concentration at 0.5 h ([1]; 0.5 h after oral CNP): 12.5 ± 4.73 ng/mL | concentration at 1 h ([1]; 1 h after oral CNP): 13.5 ± 3.67 ng/mL | concentration at 1.5 h ([1]; 1.5 h after oral CNP): 12.8 ± 1.79 ng/mL | concentration at 2 h ([1]; 2 h after oral CNP): 17.6 ± 5.2 ng/mL | concentration at 3 h ([1]; 3 h after oral CNP): 18.7 ± 7.48 ng/mL | concentration at 4 h ([1]; 4 h after oral CNP): 25 ± 15.8 ng/mL | concentration at 6 h ([1]; 6 h after oral CNP): 24.9 ± 13.1 ng/mL | concentration at 8 h ([1]; 8 h after oral CNP): 15.6 ± 5.29 ng/mL | concentration at 12 h ([1]; 12 h after oral CNP): 12.4 ± 7.03 ng/mL | concentration at 24 h ([1]; 24 h after oral CNP): 2.85 ± 0.67 ng/mL | concentration at 48 h ([1]; 48 h after oral CNP): 3.96 ± 0.34 ng/mL | concentration at 72 h ([1]; 72 h after oral CNP): 2.32 ± 0.12 ng/mL | AUC(0-inf) ([1]; po): 619 ± 157 ng·h/mL | AUC(0-t) ([1]; po): 461 ± 117 ng·h/mL | Cmax ([1]; po): 29.4 ± 10.7 ng/mL | Tmax ([1]; po): 4.5 ± 1.76 h | half-life ([1]; po): 42.8 ± 8.84 h | concentration at 0.25 h ([1]; po, 60 mg·kg^−1): 9 ± 2.12 ng/mL | concentration at 0.5 h ([1]; po, 60 mg·kg^−1): 11.5 ± 0.97 ng/mL | concentration at 1 h ([1]; po, 60 mg·kg^−1): 13.9 ± 4.94 ng/mL | concentration at 1.5 h ([1]; po, 60 mg·kg^−1): 14.9 ± 3.51 ng/mL | concentration at 2 h ([1]; po, 60 mg·kg^−1): 19.2 ± 6.71 ng/mL | concentration at 3 h ([1]; po, 60 mg·kg^−1): 22.3 ± 14.6 ng/mL | concentration at 4 h ([1]; po, 60 mg·kg^−1): 23.9 ± 12.6 ng/mL | concentration at 6 h ([1]; po, 60 mg·kg^−1): 26.2 ± 10.4 ng/mL | concentration at 8 h ([1]; po, 60 mg·kg^−1): 16.7 ± 7.24 ng/mL | concentration at 12 h ([1]; po, 60 mg·kg^−1): 8.73 ± 3.74 ng/mL | concentration at 24 h ([1]; po, 60 mg·kg^−1): 3.57 ± 1.4 ng/mL | concentration at 48 h ([1]; po, 60 mg·kg^−1): 4.15 ± 1.97 ng/mL | concentration at 72 h ([1]; po, 60 mg·kg^−1): 2.52 ± 0.63 ng/mL | IC50 at 15 min [2]: 71.4 ± 14.3 µM | Response (% control) CYP2C19 [2]: 99.95 % control | IC50 at 15 min [3]: > 200 µM | IC50 at 15 min [4]: 73 ± 3.71 µM | Response (% control) CYP2C9 [4]: 99.97 % control | Response (% control) CYP2D6 [5]: 99.99 % control | IC50 at 15 min [5]: 64.8 ± 11.7 µM | Response (% control) CYP3A4 [6, 11]: 85.25 % control | IC50 at 15 min ([6]; Sprague-Dawley, rat, microsomes, pH 7.4): 61.4 ± 14.3 µM | IC50 [7]: 4.36 ± 2.31 µM | Response (% control) CYP1A2 [7, 10]: 71.33 % control | IC50 [8]: 43.46 ± 0.06 µM | Response (% control) CYP2E1 [9, 10]: 98.16 % control
